Reference: patent US8796253B2, “Heteroaryl substituted pyrazole derivatives useful for treating hyper-proliferative disorders and diseases associated with angiogenesis” (Bayer Intellectual Property GmbH, priority 2007, dated 2014)

Each compound was assayed on HCT-116 cells stably transfected with a Luciferase reporter gene under the control of HIF-responsive element (assay: HIF-Luciferase Assay). Conditions: Homo sapiens, HCT-116, HIF-Luciferase Assay, HCT-116 reporter cells, overnight at 1% oxygen; group >10, unit inferred.
Format: cell-based
Description: HCT-116 cells stably transfected with a Luciferase reporter gene under the control of HIF-responsive element were plated in white 96- or 384-well plates at 30,000 or 5,000 cells/well, respectively, in 50 μL/well media (RPMI with 10% fetal bovine serum and 100 μg/mL Hygromycin). Cells were incubated overnight at 37° C. in a humidified incubator containing 5% CO2 under normal oxygen. The next day test compounds were added to the wells at various concentrations (0-10 μM, 0.1% final DMSO concentration) and placed in a hypoxic chamber overnight at 1% oxygen. Following the exposure to hypoxic conditions, 50 μL/well of Bright Glo reagent (Promega, Wisconsin, USA) was added to the wells and luminescence was measured after 5 min. Cells incubated under normal oxygen levels were used as background control. […] Compounds that have IC50 values between 1 μM and 10 μM include those of Examples 8, 16, 38, 39, 40, 41, 42, 43, 47, 48, 53, 54, 56, 57, 66, 69, and 72.
With `Cc1ccc(Cn2nc(C3=NC(c4ccc(C(C)(C)C)cc4)CO3)cc2C)cc1` (stereo not shown) [Example 70, 4-(4-tert-butylphenyl)-2-[5-methyl-1-(4-methylbenzyl)-1H-pyrazol-3-yl]-4,5-dihydro-1,3-oxazole] the IC50 was > 10 µM.

Same assay, conditions: Homo sapiens, HCT-116, HIF-Luciferase Assay, HCT-116 reporter cells, overnight at 1% oxygen; individual values
`Cc1ccc(Cn2nc(-c3nc(-c4ccc(C5CCCCC5)cc4)c[nH]3)cc2C)cc1` [Example 68, 3-[4-(4-cyclohexylphenyl)-1H-imidazol-2-yl]-5-methyl-1-(4-methylbenzyl)-1H-pyrazole] was tested, and the IC50 was 0.006 µM. `Cc1cc(-c2nc(-c3ccc(OC(F)(F)F)cc3)no2)nn1Cc1ccc(C#N)cc1` [Example 121, 4-[(5-methyl-3-3-[4-(trifluoromethoxy)phenyl]-1,2,4-oxadiazol-5-yl-1H-pyrazol-1-yl)methyl]benzonitrile] was tested, and the IC50 was 0.03 µM. In the case of `Cc1ccc(Cn2nc(-c3nc(-c4ccc(C(C)(C)C)cc4)co3)cc2C)cc1` [Example 77, 4-(4-tert-Butylphenyl)-2-[5-methyl-1-(4-methylbenzyl)-1H-pyrazol-3-yl]-1,3-oxazole], the IC50 is reported as 0.02 µM. Compound `Cc1ccc(Cn2nc(-c3nc4ccc(-c5ccc(F)cc5)cc4[nH]3)cc2C)cc1` [Example 59, 6-(4-Fluorophenyl)-2-[5-methyl-1-(4-methylbenzyl)-1H-pyrazol-3-yl]-1H-benzimidazole] has an IC50 of 0.005 µM. `Cc1ccc(Cn2nc(-c3nc(-c4ccc(OCC(F)(F)F)cc4)no3)cc2C)cc1` [Example 18, 5-[5-Methyl-1-(4-methylbenzyl)-1H-pyrazol-3-yl]-3-[4-(2,2,2-trifluoroethoxy)phenyl]-1,2,4-oxadiazole] showed an IC50 of 0.03 µM. `Cc1ccc(Cn2nc(-c3nc(-c4ccc(SC(F)(F)F)cc4)no3)cc2C)cc1` [Example 105, 5-[5-methyl-1-(4-methylbenzyl)-1H-pyrazol-3-yl]-3-4-[(trifluoromethyl)sulfanyl]phenyl-1,2,4-oxadiazole] gave an IC50 of 0.03 µM. `Cc1ccc(Cn2nc(-c3nc(-c4ccc(C(C)(C)F)cc4)no3)cc2C)cc1` [Example 103, 3-[4-(1-fluoro-1-methylethyl)phenyl]-5-[5-methyl-1-(4-methylbenzyl)-1H-pyrazol-3-yl]-1,2,4-oxadiazole] was tested, and the IC50 was 0.01 µM. For `Cc1ccc(Cn2nc(-c3nc(-c4ccc(N5CCCC5=O)cc4)no3)cc2C)cc1` [Example 24, 1-(4-{5-[5-Methyl-1-(4-methylbenzyl)-1H-pyrazol-3-yl]-1,2,4-oxadiazol-3-yl}phenyl)pyrrolidin-2-one], the IC50 was 0.08 µM.

Same assay, conditions: Homo sapiens, HCT-116, HIF-Luciferase Assay, HCT-116 reporter cells, overnight at 1% oxygen; potency groups
In the case of `Cc1ccc(Cn2nc(-c3nc(-c4ccc(C5CCCCC5)cc4)c[nH]3)cc2C)cc1` [Example 68, 3-[4-(4-cyclohexylphenyl)-1H-imidazol-2-yl]-5-methyl-1-(4-methylbenzyl)-1H-pyrazole], the IC50 is reported as ≤ 1 µM. With `Cc1ccc(Cn2nc(-c3nc(-c4ccccc4)no3)cc2C)cc1` [Example 9, 5-[5-methyl-1-(4-methylbenzyl)-1H-pyrazol-3-yl]-3-phenyl-1,2,4-oxadiazole] the IC50 was ≤ 1 µM. For `Cc1ccc(Cn2nc(-c3nc(-c4ccc(-c5ccc(Cl)cc5)cc4)co3)cc2C)cc1` [Example 76, 4-(4′-chlorobiphenyl-4-yl)-2-[5-methyl-1-(4-methylbenzyl)-1H-pyrazol-3-yl]-1,3-oxazole], the IC50 was ≤ 1 µM. With `Cc1ccc(Cn2nc(-c3nc4ccc(Br)cc4[nH]3)cc2C)cc1` [Example 37, 6-Bromo-2-[5-methyl-1-(4-methylbenzyl)-1H-pyrazol-3-yl]-1H-benzimidazole] the IC50 was ≤ 1 µM. `Cc1ccc(Cn2nc(-c3nc4ccc(N5CCOCC5)cc4[nH]3)cc2C)cc1` [Example 53, 2-[5-methyl-1-(4-methylbenzyl)-1H-pyrazol-3-yl]-6-morpholin-4-yl-1H-benzimidazole] showed an IC50 of 1 to 10 µM. For `Cc1ccc(Cn2nc(-c3nc(-c4ccc(C(F)(F)F)nc4)no3)cc2C)cc1` [Example 17, 5-{5-[5-methyl-1-(4-methylbenzyl)-1H-pyrazol-3-yl]-1,2,4-oxadiazol-3-yl}-2-(trifluoromethyl)pyridine], the IC50 was ≤ 1 µM. In the case of `Cc1ccc(Cn2nc(-c3nc(-c4ccccc4)co3)cc2C)cc1` [Example 74, 2-[5-Methyl-1-(4-methylbenzyl)-1H-pyrazol-3-yl]-4-phenyl-1,3-oxazole], the IC50 is reported as ≤ 1 µM. With `Cc1ccc(Cn2nc(C3=NC(Cc4ccc(Cl)cc4)CO3)cc2C)cc1` (stereo not shown) [Example 72, 4-(4-chlorobenzyl)-2-[5-methyl-1-(4-methylbenzyl)-1H-pyrazol-3-yl]-4,5-dihydro-1,3-oxazole] the IC50 was 1 to 10 µM. `Cc1ccc(Cn2nc(-c3nc4cc(-c5cccc(F)c5)ccc4o3)cc2C)cc1` [Example 34, 5-(3-fluorophenyl)-2-[5-methyl-1-(4-methylbenzyl)-1H-pyrazol-3-yl]-1,3-benzoxazole] was tested, and the IC50 was ≤ 1 µM. For `Cc1ccc(Cn2nc(-c3nc4ccccc4o3)cc2C)cc1` [Example 31, 2-[5-methyl-1-(4-methylbenzyl)-1H-pyrazol-3-yl]-1,3-benzoxazole], the IC50 was ≤ 1 µM. With `Cc1ccc(Cn2nc(-c3nc(-c4ccc(C(C)(C)C)cc4)co3)cc2C)cc1` [Example 77, 4-(4-tert-Butylphenyl)-2-[5-methyl-1-(4-methylbenzyl)-1H-pyrazol-3-yl]-1,3-oxazole] the IC50 was ≤ 1 µM. In the case of `Cc1ccc(Cn2nc(-c3nc4ccc(-c5ccc(F)cc5)cc4[nH]3)cc2C)cc1` [Example 59, 6-(4-Fluorophenyl)-2-[5-methyl-1-(4-methylbenzyl)-1H-pyrazol-3-yl]-1H-benzimidazole], the IC50 is reported as ≤ 1 µM. For `Cc1ccc(Cn2nc(-c3nc(-c4ccc(OC(F)(F)F)cc4)c[nH]3)cc2C)cc1` [Example 65, 5-Methyl-1-(4-methylbenzyl)-3-{4-[4-(trifluoromethoxy)phenyl]-1H-imidazol-2-yl}-1H-pyrazole], the IC50 was ≤ 1 µM. With `Cc1ccc(Cn2nc(-c3nc4ccc(C)cc4[nH]3)cc2C)cc1` [Example 39, 6-methyl-2-[5-methyl-1-(4-methylbenzyl)-1H-pyrazol-3-yl]-1H-benzimidazole] the IC50 was 1 to 10 µM. `Cc1ccc(Cn2nc(-c3nc4ccc(C(=O)c5ccccc5)cc4[nH]3)cc2C)cc1` [Example 46, {2-[5-methyl-1-(4-methylbenzyl)-1H-pyrazol-3-yl]-1H-benzimidazol-6-yl}(phenyl)methanone] was tested, and the IC50 was ≤ 1 µM. With `Cc1ccc(Cn2nc(-c3nc4c(C)cc(Br)cc4[nH]3)cc2C)cc1` [Example 57, 6-bromo-4-methyl-2-[5-methyl-1-(4-methylbenzyl)-1H-pyrazol-3-yl]-1H-benzimidazole] the IC50 was 1 to 10 µM. In the case of `Cc1ccc(Cn2nc(-c3nc(-c4ccc(OCC(F)(F)F)cc4)no3)cc2C)cc1` [Example 18, 5-[5-Methyl-1-(4-methylbenzyl)-1H-pyrazol-3-yl]-3-[4-(2,2,2-trifluoroethoxy)phenyl]-1,2,4-oxadiazole], the IC50 is reported as ≤ 1 µM. Compound `Cc1ccc(Cn2nc(-c3nc4ccc(C#N)cc4[nH]3)cc2C)cc1` [Example 54, 2-[5-methyl-1-(4-methylbenzyl)-1H-pyrazol-3-yl]-1H-benzimidazole-6-carbonitrile] has an IC50 of 1 to 10 µM. In the case of `Cc1ccc(Cn2nc(-c3nc4ccc(N5CCCCC5)cc4[nH]3)cc2C)cc1` [Example 49, 2-[5-methyl-1-(4-methylbenzyl)-1H-pyrazol-3-yl]-6-piperidin-1-yl-1H-benzimidazole], the IC50 is reported as ≤ 1 µM. For `Cc1ccc(Cn2nc(-c3nc4ccc(Oc5ccccc5)cc4o3)cc2C)cc1` [Example 30, 2-[5-methyl-1-(4-methylbenzyl)-1H-pyrazol-3-yl]-6-phenoxy-1,3-benzoxazole], the IC50 was ≤ 1 µM. With `Cc1ccc(Cn2nc(-c3nc(-c4ccc(Br)cc4)co3)cc2C)cc1` [Example 75, 4-(4-bromophenyl)-2-[5-methyl-1-(4-methylbenzyl)-1H-pyrazol-3-yl]-1,3-oxazole] the IC50 was ≤ 1 µM. `Cc1ccc(Cn2nc(-c3nc4cc(-c5cccc(Cl)c5)ccc4o3)cc2C)cc1` [Example 36, 5-(3-chlorophenyl)-2-[5-methyl-1-(4-methylbenzyl)-1H-pyrazol-3-yl]-1,3-benzoxazole] was tested, and the IC50 was ≤ 1 µM. In the case of `Cc1ccc(Cn2nc(-c3nc4ccncc4[nH]3)cc2C)cc1` [Example 42, 2-[5-methyl-1-(4-methylbenzyl)-1H-pyrazol-3-yl]-3H-imidazo[4,5-c]pyridine], the IC50 is reported as 1 to 10 µM. With `Cc1ccc(Cn2nc(-c3nc4cc(-c5ccccc5F)ccc4o3)cc2C)cc1` [Example 35, 5-(2-fluorophenyl)-2-[5-methyl-1-(4-methylbenzyl)-1H-pyrazol-3-yl]-1,3-benzoxazole] the IC50 was ≤ 1 µM. For `Cc1ccc(Cn2nc(-c3nc(-c4ccc(N5CCCC5=O)cc4)no3)cc2C)cc1` [Example 24, 1-(4-{5-[5-Methyl-1-(4-methylbenzyl)-1H-pyrazol-3-yl]-1,2,4-oxadiazol-3-yl}phenyl)pyrrolidin-2-one], the IC50 was ≤ 1 µM.
